Experiments:
Experiment in all cases: relative viability (nuclei count vs DMSO), 5 days (fraction); higher = more cells survive
[1] = compound: CN(C)CC1=CC(=CC=C1)N=C(C2=CC=CC=C2)C3=C(NC4=C3C=CC(=C4)C(=O)N(C)C)O
Summary of the method: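 Nuclei counted with MetaXpress define viability as the ratio of treated to vehicle wells, given as a median across plates. The lung cancer cell lines were in 1536-well plates, pinned with five √10-spaced library-drug doses and imaged at 4× after 5 days and Hoechst staining. Plates passed with control CV below 25% and at least one doubling.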

[2] = compound: CN(C)CC1=CC(=CC=C1)N=C(C2=CC=CC=C2)C3=C(NC4=C3C=CC(=C4)C(=O)N(C)C)O + COc1cccc2cc(-c3nc([C@H]4CC[C@H](C(=O)O)CC4)n4ncnc(N)c34)[nH]c12 [OSI-027] (partner 0.5 µM)
Summary of the method: (§1)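 One day after seeding in 1536-well plates, lung cancer cell lines were dosed by pin tool. Dosing was either single-drug or a fixed anchor-drug dose plus five library-drug doses (not always all listed) in √10 steps. After 5 days, nuclei were stained in one fix-and-stain step and counted on 4× images, and relative viability is the nuclei count of treated wells over that of vehicle wells, given as the median of duplicate plates.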

[3] = compound: CN(C)CC1=CC(=CC=C1)N=C(C2=CC=CC=C2)C3=C(NC4=C3C=CC(=C4)C(=O)N(C)C)O + CC(=O)c1c(C)c2cnc(Nc3ccc(N4CCNCC4)cn3)nc2n(C2CCCC2)c1=O [Palbociclib] (partner 0.5 µM)
Summary of the method: as §1

[4] = compound: CN(C)CC1=CC(=CC=C1)N=C(C2=CC=CC=C2)C3=C(NC4=C3C=CC(=C4)C(=O)N(C)C)O + COc1cc2c(Oc3ccc(NC(=O)C4(C(=O)Nc5ccc(F)cc5)CC4)cc3F)ccnc2cc1OCCCN1CCOCC1 [Foretinib] (partner 0.25 µM)
Summary of the method: as §1

Row | Cell Line | relative viability ([1]; 0.08 µM) | relative viability ([1]; 0.253 µM) | relative viability ([1]; 0.8 µM) | relative viability ([1]; 2.53 µM) | relative viability ([1]; 8 µM) | relative viability ([2]; first compound 0.08 µM) | relative viability ([2]; first compound 0.253 µM) | relative viability ([2]; first compound 0.8 µM) | relative viability ([2]; first compound 2.53 µM) | relative viability ([2]; first compound 8 µM) | relative viability ([3]; first compound 0.08 µM) | relative viability ([3]; first compound 0.253 µM) | relative viability ([3]; first compound 0.8 µM) | relative viability ([3]; first compound 2.53 µM) | relative viability ([3]; first compound 8 µM) | relative viability ([4]; first compound 0.08 µM) | relative viability ([4]; first compound 0.253 µM) | relative viability ([4]; first compound 0.8 µM) | relative viability ([4]; first compound 2.53 µM) | relative viability ([4]; first compound 8 µM)
1 | HCC-78 | 0.993 | 0.95 | 0.967 | 1.02 | 0.958 | 0.394 | 0.406 | 0.508 | 0.406 | 0.377 | 0.504 | 0.516 | 0.501 | 0.403 | 0.52 | 0.564 | 0.582 | 0.472 | 0.61 | 0.547
2 | HCC-366 | 1 | 0.985 | 1.01 | 0.978 | 0.955 | 0.999 | 1.1 | 0.971 | 0.878 | 0.414 | 0.406 | 0.364 | 0.404 | 0.412 | 0.341 | 0.903 | 0.889 | 0.888 | 0.83 | 0.85
3 | HCC-827 | 0.999 | 1.03 | 1.06 | 0.953 | 0.916 | 0.795 | 0.712 | 0.749 | 0.686 | 0.699 | 0.516 | 0.385 | 0.38 | 0.52 | 0.472 | 1.05 | 1.08 | 1.01 | 1.02 | 0.876
4 | HOP-62 | 1.05 | 0.965 | 1.04 | 0.981 | 0.97 | 0.852 | 0.847 | 0.827 | 0.769 | 0.799 | 0.372 | 0.445 | 0.441 | 0.43 | 0.4 | 1.08 | 1.01 | 1.12 | 1.05 | 1.17
5 | LC-2-ad | 1.01 | 1.04 | 1.08 | 0.925 | 0.84 | 0.935 | 0.73 | 0.867 | 0.732 | 0.614 | 0.404 | 0.512 | 0.475 | 0.456 | 0.486 | 0.993 | 0.881 | 0.884 | 0.919 | 0.969
6 | LCLC-97TM1 | 0.907 | 1.04 | 1.02 | 1.13 | 1.13 | 0.611 | 0.627 | 0.543 | 0.436 | 0.656 | 0.199 | 0.224 | 0.258 | 0.254 | 0.299 | 0.958 | 0.821 | 0.822 | 0.917 | 0.975
7 | LCLC-103H | 0.951 | 1.07 | 0.931 | 0.986 | 0.915 | 0.452 | 0.538 | 0.493 | 0.493 | 0.452 | 0.255 | 0.425 | 0.558 | 0.449 | 0.458 | 0.746 | 0.826 | 0.825 | 0.841 | 0.508
8 | LK-2 | 1.13 | 1.04 | 0.909 | 0.991 | 0.853 | 0.189 | 0.228 | 0.241 | 0.211 | 0.185 | 0.52 | 0.814 | 0.605 | 0.561 | 0.541 | 1.15 | 1.16 | 1.27 | 1.15 | 1.17
9 | LOU-NH91 | 0.954 | 1.03 | 0.789 | 0.96 | 0.913 | 0.691 | 0.713 | 0.561 | 0.762 | 0.689 | 0.57 | 0.53 | 0.524 | 0.52 | 0.598 | 0.931 | 0.882 | 0.732 | 0.917 | 0.936
10 | LU99A | 0.893 | 0.934 | 0.966 | 0.885 | 0.87 | 0.245 | 0.346 | 0.341 | 0.297 | 0.286 | 0.392 | 0.417 | 0.457 | 0.401 | 0.351 | 0.787 | 0.842 | 0.926 | 0.809 | 0.781
11 | LXF-289 | 1.01 | 0.955 | 0.993 | 0.971 | 0.955 | 0.769 | 0.731 | 0.707 | 0.713 | 0.639 | 0.603 | 0.544 | 0.606 | 0.547 | 0.568 | 0.966 | 0.9 | 1.03 | 0.93 | 0.929
12 | NCI-H23 | 1.09 | 1.03 | 1.06 | 1.02 | 0.815 | 0.609 | 0.696 | 0.518 | 0.683 | 0.378 | – | 0.655 | 0.556 | 0.579 | 0.478 | 1.1 | 1.1 | 0.622 | 1.18 | 0.81
13 | NCI-H596 | 1.05 | 0.973 | 0.975 | 1.01 | 0.882 | 0.738 | 1.03 | 0.639 | 0.744 | 0.659 | – | – | – | – | – | 0.593 | 0.971 | 0.845 | 0.883 | 0.807
14 | NCI-H1299 | 0.998 | 1.03 | 1.01 | 1.01 | 0.977 | – | – | – | – | – | – | – | – | – | – | 1.09 | 1.06 | 1.14 | 1.04 | 1.08
15 | NCI-H1563 | 1.02 | 1 | 0.905 | 0.861 | 0.783 | 0.723 | 0.811 | 0.775 | 0.766 | 0.708 | – | – | – | – | – | 0.941 | 0.967 | 0.917 | 0.857 | 0.948
16 | NCI-H1648 | 0.851 | 0.657 | 0.749 | 0.884 | 0.915 | 0.266 | – | 0.308 | 0.277 | 0.252 | 0.274 | 0.276 | – | 0.365 | 0.315 | – | – | – | – | –
17 | NCI-H1703 | 0.989 | 0.847 | 1.11 | 0.63 | 0.349 | – | – | – | – | – | – | – | – | – | – | 0.334 | 0.489 | 0.333 | 0.261 | 0.316
18 | NCI-H1792 | 0.997 | 1.05 | 0.881 | 0.949 | 0.8 | 0.77 | 0.729 | 0.709 | 0.721 | 0.58 | 0.666 | 0.638 | 0.673 | 0.641 | 0.665 | – | – | – | – | –
